From US20260262643A1, “HERBICIDAL BENZOXAZINES” (FMC CORPORATION, priority 2022, published 2026)

What was measured:
soybean [1] = assay: Test C postemergence; format: in vivo, Glycine max; details: 10 days, 0 to 100 scale (0 no effect, 100 complete control)
In short: (§1)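 Greenhouse herbicide screen, 10-day duration. Test chemicals in solvent/surfactant blend were sprayed onto soil at sowing (pre) or onto 2–10 cm seedlings at one to two leaves (post); injury scored visually against controls, 0 no effect to 100 complete control.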

ducksalad = assay: Test D flooded paddy test; format: in vivo, Heteranthera limosa; details: 250 g ai/ha, applied to paddy water, visual rating after 13 to 14 days, scale 0 to 100 (0 no effect, 100 complete control)
In short: (§2)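 Plants grown to the 2-leaf stage; pots flooded to 3 cm above soil at treatment and held at that depth throughout. Test compounds applied directly to the paddy water. After 13 to 14 days in a greenhouse, response was rated visually versus controls on a 0 (no effect) to 100 (complete control) scale.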

barnyardgrass [2] = assay: Test C postemergence; format: in vivo, Echinochloa crusgalli; details: 10 days, 0 to 100 scale (0 no effect, 100 complete control)
In short: as §1

soybean [3] = assay: Test C preemergence; format: in vivo, Glycine max
In short: as §1

blackgrass [4] = assay: Test C preemergence; format: in vivo, Alopecurus myosuroides
In short: as §1

corn [5] = assay: Test C preemergence; format: in vivo, Zea mays
In short: as §1

ragweed [6] = assay: Test C postemergence; format: in vivo, Ambrosia artemisiifolia; details: 10 days, 0 to 100 scale (0 no effect, 100 complete control)
In short: as §1

barnyardgrass [7] = assay: Test C preemergence; format: in vivo, Echinochloa crusgalli
In short: as §1

ragweed [8] = assay: Test C preemergence; format: in vivo, Ambrosia artemisiifolia
In short: as §1

ryegrass, Italian [9] = assay: Test C postemergence; format: in vivo, Lolium multiflorum; details: 10 days, 0 to 100 scale (0 no effect, 100 complete control)
In short: as §1

oat, wild [10] = assay: Test C postemergence; format: in vivo, Avena fatua; details: 10 days, 0 to 100 scale (0 no effect, 100 complete control)
In short: as §1

kochia [11] = assay: Test C postemergence; format: in vivo, Bassia scoparia; details: 10 days, 0 to 100 scale (0 no effect, 100 complete control)
In short: as §1

pigweed, palmer [12] = assay: Test C postemergence; format: in vivo, Amaranthus palmeri; details: 10 days, 0 to 100 scale (0 no effect, 100 complete control)
In short: as §1

sedge, umbrella = assay: Test D flooded paddy test; format: in vivo, Cyperus difformis; details: 250 g ai/ha, applied to paddy water, visual rating after 13 to 14 days, scale 0 to 100 (0 no effect, 100 complete control)
In short: as §2

green foxtail [13] = assay: Test C postemergence; format: in vivo, Setaria viridis; details: 10 days, 0 to 100 scale (0 no effect, 100 complete control)
In short: as §1

pigweed, palmer [14] = assay: Test C preemergence; format: in vivo, Amaranthus palmeri
In short: as §1

barnyardgrass [15] = assay: Test D flooded paddy test; format: in vivo, Echinochloa crus-galli; details: 250 g ai/ha, applied to paddy water, visual rating after 13 to 14 days, scale 0 to 100 (0 no effect, 100 complete control)
In short: as §2

rice = assay: Test D flooded paddy test; format: in vivo, Oryza sativa; details: 250 g ai/ha, applied to paddy water, visual rating after 13 to 14 days, scale 0 to 100 (0 no effect, 100 complete control)
In short: as §2

wheat [16] = assay: Test C preemergence; format: in vivo, Triticum aestivum
In short: as §1

horseweed = assay: Test C postemergence; format: in vivo, Erigeron canadensis; details: 10 days, 0 to 100 scale (0 no effect, 100 complete control)
In short: as §1

corn [17] = assay: Test C postemergence; format: in vivo, Zea mays; details: 10 days, 0 to 100 scale (0 no effect, 100 complete control)
In short: as §1

oat, wild [18] = assay: Test C preemergence; format: in vivo, Avena fatua
In short: as §1

wheat [19] = assay: Test C postemergence; format: in vivo, Triticum aestivum; details: 10 days, 0 to 100 scale (0 no effect, 100 complete control)
In short: as §1

ryegrass, Italian [20] = assay: Test C preemergence; format: in vivo, Lolium multiflorum
In short: as §1

blackgrass [21] = assay: Test C postemergence; format: in vivo, Alopecurus myosuroides; details: 10 days, 0 to 100 scale (0 no effect, 100 complete control)
In short: as §1

kochia [22] = assay: Test C preemergence; format: in vivo, Bassia scoparia
In short: as §1

galium = assay: Test C postemergence; format: in vivo, Galium aparine; details: 10 days, 0 to 100 scale (0 no effect, 100 complete control)
In short: as §1

green foxtail [23] = assay: Test C preemergence; format: in vivo, Setaria viridis
In short: as §1

[24] = 500 g ai/ha, preemergence, 0 to 100 scale (0 no effect, 100 complete control)
[25] = Preemergence, 125 g ai/ha, 0 to 100 scale, 0 no effect, 100 complete control

CCOC(=O)c1ncn(-c2ccc(C)c(C(=O)N3C[C@H](C)Oc4c(Cl)cccc43)c2)n1 [Compound 342]
40: Plant response rating, Kochia (kochia [11]; Postemergence, 125 g ai/ha) | Plant response rating, Foxtail, Green (green foxtail [23]; [25])
100: Plant response rating, Soybean (soybean [1]; Postemergence, 125 g ai/ha) | Plant response rating, Pigweed, Palmer (pigweed, palmer [12]; 500 g ai/ha, postemergence)
15: Plant response rating, Sedge, Umbrella (Flood) (sedge, umbrella) | Plant response rating, Rice (Flood) (rice)
0: Plant response rating, Corn (corn [5]; [25]) | Plant response rating, Ragweed (ragweed [8]; [25]) | Plant response rating, Barnyardgrass (Flood) (barnyardgrass [15]) | Plant response rating, Wheat (wheat [16]; [25]) | Kochia plant response rating (kochia [22]; [24]) | Plant response rating, Kochia (kochia [22]; [25])
30: Plant response rating, Pigweed, Palmer (pigweed, palmer [14]; [25]) | Wheat plant response rating (wheat [16]; [24])
90: Plant response rating, Soybean (soybean [1]; 500 g ai/ha, postemergence) | Plant response rating, Pigweed, Palmer (pigweed, palmer [12]; Postemergence, 125 g ai/ha) | Plant response rating, Foxtail, Green (green foxtail [13]; 500 g ai/ha, postemergence) | Foxtail, Green plant response rating (green foxtail [23]; [24])
10: Plant response rating, Ducksalad (Flood) (ducksalad) | Soybean plant response rating (soybean [3]; [24]) | Plant response rating, Soybean (soybean [3]; [25]) | Plant response rating, Horseweed (horseweed; Postemergence, 125 g ai/ha)
70: Plant response rating, Barnyardgrass (barnyardgrass [2]; 500 g ai/ha, postemergence) | Plant response rating, Ryegrass, Italian (ryegrass, Italian [9]; 500 g ai/ha, postemergence) | Plant response rating, Ryegrass, Italian (ryegrass, Italian [9]; Postemergence, 125 g ai/ha) | Plant response rating, Oat, Wild (oat, wild [10]; Postemergence, 125 g ai/ha) | Pigweed, Palmer plant response rating (pigweed, palmer [14]; [24]) | Plant response rating, Corn (corn [17]; 500 g ai/ha, postemergence) | Plant response rating, Corn (corn [17]; Postemergence, 125 g ai/ha) | Plant response rating, Wheat (wheat [19]; Postemergence, 125 g ai/ha) | Plant response rating, Ryegrass, Italian (ryegrass, Italian [20]; [25]) | Plant response rating, Galium (galium; Postemergence, 125 g ai/ha)
20: Plant response rating, Blackgrass (blackgrass [4]; [25]) | Corn plant response rating (corn [5]; [24]) | Plant response rating, Barnyardgrass (barnyardgrass [7]; [25]) | Ragweed plant response rating (ragweed [8]; [24]) | Plant response rating, Oat, Wild (oat, wild [18]; [25])
80: Plant response rating, Ragweed (ragweed [6]; 500 g ai/ha, postemergence) | Plant response rating, Oat, Wild (oat, wild [10]; 500 g ai/ha, postemergence) | Plant response rating, Foxtail, Green (green foxtail [13]; Postemergence, 125 g ai/ha) | Oat, Wild plant response rating (oat, wild [18]; [24]) | Plant response rating, Wheat (wheat [19]; 500 g ai/ha, postemergence) | Ryegrass, Italian plant response rating (ryegrass, Italian [20]; [24]) | Plant response rating, Blackgrass (blackgrass [21]; 500 g ai/ha, postemergence) | Plant response rating, Galium (galium; 500 g ai/ha, postemergence)
50: Blackgrass plant response rating (blackgrass [4]; [24]) | Plant response rating, Ragweed (ragweed [6]; Postemergence, 125 g ai/ha) | Plant response rating, Horseweed (horseweed; 500 g ai/ha, postemergence)
60: Plant response rating, Barnyardgrass (barnyardgrass [2]; Postemergence, 125 g ai/ha) | Barnyardgrass plant response rating (barnyardgrass [7]; [24]) | Plant response rating, Kochia (kochia [11]; 500 g ai/ha, postemergence) | Plant response rating, Blackgrass (blackgrass [21]; Postemergence, 125 g ai/ha)
